Test [1] can be described thus: Mouse Activity and Screen Test Procedure (MAST): inhibition of spontaneous locomotion. The format is in vivo, mouse (male Swiss-Webster). The following applies: one hour prior to testing, accumulated over one hour. On the procedure: Nine unfasted Swiss-Webster male mice weighing 20-30 g are equally divided into three groups for each drug dose to be tested. That is, data for each dose level was generated by three separate groups of three mice each.
A minimum of three dose levels (10, 30, and 100 mg/kg) are tested for each drug. Treatments are administered intraperitoneally one hour prior to testing. All dosages are calculated as parent compound and given in volumes of 10 ml/kg. Compounds are dissolved or suspended in 0.2% Methocel. Control animals are injected with Methocel.
A two part testing procedure is started one hour postinjection. […] Briefly this test consists of placing mice on individual wire screens which are then rotated 180 degrees at the start of a 60 second observation period. The number of mice falling off the inverted screen is recorded.
The actophotometer consists of a cylindrical chamber whose center is occupied by another cylinder which contains the illumination for six photocells located on the perimeter of the chamber. Six light-beam interruptions equal one count. Locomotor activity is recorded by computer at ten minute intervals for 60 minutes.
The data obtained from the screen test are expressed as percent of mice falling off the screen. Data derived from locomotor activity of drug treated mice are compared to the activity of vehicle treated animals and are expressed as percent inhibition of spontaneous locomotion. All percentages reported for inhibition of locomotion (LI) are based upon data accumulated for one hour. […] An overall dose rating is obtained by the following criteria:
LAD refers to the lowest dose at which an A rating is achieved. […] The compounds are identified in the examples.

The target of the next test is T1, A2 receptor (Rattus norvegicus, UniProt P30543).
T1 construct: 5 mg original tissue weight of rat weight of rat striatal membranes; tissue Pel-Freez (Rogers, Ark.); host or cells: rat striatum (membranes)
T1 sequence (P30543 whole entry): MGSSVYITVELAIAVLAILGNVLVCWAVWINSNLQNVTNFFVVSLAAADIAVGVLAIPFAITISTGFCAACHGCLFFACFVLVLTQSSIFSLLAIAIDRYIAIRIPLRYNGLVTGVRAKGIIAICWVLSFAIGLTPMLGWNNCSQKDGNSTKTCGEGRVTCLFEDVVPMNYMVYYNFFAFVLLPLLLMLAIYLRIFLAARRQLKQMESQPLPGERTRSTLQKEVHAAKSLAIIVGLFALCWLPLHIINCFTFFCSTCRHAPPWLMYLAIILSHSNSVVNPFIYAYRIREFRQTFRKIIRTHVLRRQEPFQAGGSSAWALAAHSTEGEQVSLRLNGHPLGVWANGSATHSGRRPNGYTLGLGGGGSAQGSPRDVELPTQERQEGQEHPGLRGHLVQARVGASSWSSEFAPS
Kind of test: Adenosine Receptor Binding - A2 Receptor Affinity (RBA2), [3H]NECA displacement. The following applies: 4 nM [3H]NECA, 50 nM N6-cyclopentyladenosine, rat striatal membranes, 25° C., 60 min; read-out: RBA-2 IC50 (adenosine A2 receptor affinity). On the procedure: Adenosine Receptor Binding--A2 Receptor Affinity (RBA2)
Brains from 200-500 g mixed sex Sprague-Dawley rats were purchased from Pel-Freez (Rogers, Ark.). […] Brains were thawed and then kept on ice while the striata were dissected out. […] The suspension was centrifuged at 50,000 xg for ten minutes, the supernatant discarded, the pellet resuspended in 10 vol ice-cold Tris as above, recentrifuged, resuspended at 1 g/5 ml, and stored in plastic vials at -70° C. […] When needed, tissue was thawed at room temperature, disrupted in a Polytron, and kept on ice until used. […]
Nonspecific binding was defined as binding in the presence of 100 μM N^6 -cyclopentyladenosine, and specific binding was defined as total binding minus nonspecific binding. The IC50 was calculated by weighted nonlinear least squares curve-fitting to the mass-action equation. […]
Weighting factors were calculated under the assumption that the standard deviation was proportional to the predicted value of Y. Nonspecific binding was treated as a very large (infinite) concentration of drug in the computer analysis.

A further test concerns the target T2, A1 receptor (Rattus norvegicus, UniProt P25099).
T2 construct: Whole brain minus cerebellum and brainstem from male Long Evans rats; from tissue; host or cells: rat whole brain minus cerebellum and brainstem (membranes)
T2 sequence (P25099 1-326): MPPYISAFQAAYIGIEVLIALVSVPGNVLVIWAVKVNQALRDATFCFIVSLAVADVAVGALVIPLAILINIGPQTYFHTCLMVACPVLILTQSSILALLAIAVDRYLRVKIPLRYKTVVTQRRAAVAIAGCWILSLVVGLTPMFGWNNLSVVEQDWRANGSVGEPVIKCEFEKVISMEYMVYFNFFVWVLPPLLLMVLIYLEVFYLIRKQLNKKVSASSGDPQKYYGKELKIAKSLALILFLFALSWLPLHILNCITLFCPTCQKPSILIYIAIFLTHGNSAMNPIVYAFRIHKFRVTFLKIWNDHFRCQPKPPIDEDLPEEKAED
Kind of test: Adenosine Receptor Binding - A1 Receptor Affinity (RBA1), [3H]-CHA displacement. To be noted: 1.0 nM [3H]-CHA, rat brain membranes, pH 7.7, 25° C., 1 h; read-out: RBA-1 IC50 (adenosine A1 receptor affinity). How it is done: The supernatant was discarded, and the pellet was resuspended and centrifuged as before. […] Incubation volume was 2 ml. […] The radio-labeled ligand retained on the filter was measured by liquid scintillation spectrophotometry after shaking the filters for one hour or longer on a mechanical shaker in 10 ml of Beckman Ready-Solv HP scintillation cocktail. […] The maximal number of binding sites (Bmax) was calculated from the Scatchard plot.

In general, IC50 refers to the concentration at which inhibition is half-maximal. For the compound `OC[C@H]1O[C@@H](n2cnc3c(NCC4c5ccccc5Oc5ccccc54)ncnc32)[C@H](O)[C@@H]1O` [Example 4, N^6-[Xanthene-9-methylamino]adenosine], the “Inhibition of Mouse Locomotion Activity” value in test [1] (1 mg/kg i.p.) is -5%; in test [1] (3 mg/kg i.p.), 17%; in test [1] (10 mg/kg i.p.), 72%; in test [1] (30 mg/kg i.p.), 91%; in test [1] (100 mg/kg i.p.), 91%. In addition, the IC50 was 65 nM on A2 receptor and 85 nM at A1 receptor.

(Values after patent US4593019A, “N^6 -tricyclic adenosines” (Warner-Lambert Company, priority 1984, dated 1986).)
